PMC9969401, “Discovery of 2-(3-Benzamidopropanamido)thiazole-5-carboxylate Inhibitors of the Kinesin HSET (KIFC1) and the Development of Cellular Target Engagement Probes” (Journal of Medicinal Chemistry, 2023)

Biological target: T1, HSET in DLD1 4N cells (Homo sapiens, UniProt Q9BW19)
T1 construct: overlapped with the signal from the antibody-probed endogenous HSET protein; endogenous in cells; host or cells: DLD1 4N cells
T1 sequence (Q9BW19 1-673): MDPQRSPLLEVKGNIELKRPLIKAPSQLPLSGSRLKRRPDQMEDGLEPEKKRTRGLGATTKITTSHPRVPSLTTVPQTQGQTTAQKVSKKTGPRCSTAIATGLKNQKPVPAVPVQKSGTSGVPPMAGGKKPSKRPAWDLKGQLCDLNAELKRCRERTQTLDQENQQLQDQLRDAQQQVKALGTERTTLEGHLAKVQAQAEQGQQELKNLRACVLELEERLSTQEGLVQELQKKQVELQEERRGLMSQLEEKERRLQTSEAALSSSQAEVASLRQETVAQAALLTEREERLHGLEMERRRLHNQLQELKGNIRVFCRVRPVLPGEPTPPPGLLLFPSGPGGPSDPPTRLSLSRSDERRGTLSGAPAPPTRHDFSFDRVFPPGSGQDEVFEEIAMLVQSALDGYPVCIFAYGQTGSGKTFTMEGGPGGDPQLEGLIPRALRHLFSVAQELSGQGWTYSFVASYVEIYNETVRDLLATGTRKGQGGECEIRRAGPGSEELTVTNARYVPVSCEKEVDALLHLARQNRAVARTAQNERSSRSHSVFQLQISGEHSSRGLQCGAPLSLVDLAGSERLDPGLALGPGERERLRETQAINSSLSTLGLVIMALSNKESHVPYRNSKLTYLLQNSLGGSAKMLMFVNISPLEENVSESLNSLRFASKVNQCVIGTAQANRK
Experiment: Click probe localization target engagement imaging in DLD1 4N cells
Format: cell-based
Conditions: for Average Pixel intensity: DLD1 4N, Tz-Cy5 800nM
Description: The Cy-5 tetrazine dye selected for this experiment is not cell-permeable, thus fixation and permeabilization of cells were necessary prior to its addition. Experiments were conducted in DLD1 4N cells and, as a negative control, isogenic 2N DLD1 HSET KO cells in which HSET expression was prevented by the disruption of the HSET gene using CRISPR. Cells were treated first with proTAME for 2 h to accumulate mitotic events, followed by treatment with the TCO probe 40 for 45 min. The live cells were then fixed and permeabilized before treatment with the tetrazine-Cy5 dye and incubation to allow the IEDDA reaction to occur. Additionally, the cells were stained for the endogenous HSET protein using indirect immunofluorescence and imaged to observe the fluorescence from both the TCO probe and antibody-labeled HSET. […] A 3 μM concentration of the probe 40 gave an acceptable signal-to-noise ratio of around 2:1. Even under these optimal conditions, some residual uniform cytoplasmic Cy5 signal was observed within the cells. However, a clear Cy5 decoration of the mitotic spindle was seen, which overlapped with the signal from the antibody-probed endogenous HSET protein (Figures 2A and S6). […] We observed a 14–17-fold increase in signal in DLD1 4N cells treated with 40 relative to tetrazine-Cy5 alone. […] Comparing the intensity of click probe labeling coincident with the mitotic spindle in DLD1 4N cells to that in DLD1 HSET KO cells after both were treated with 40, we observed a twofold higher signal in the former.
Direct target engagement of active inhibitor 36 was measured by calculating its capacity to displace the TCO-containing probe 40. 4N DLD1 cells and DLD1 HSET KO cells (negative control) were plated in 96-well ibidi μ-Clear plates (IB-89626, ibidi). Cells were first treated for 2 h with 8 μM pro-TAME (I-440–01M, R&D system) to accumulate mitotic cells and were then treated with 8 μM MG-132 (S2619, SelleckChem) and 3 μM 40, alone or together with active inhibitor 36 in DMEM media with 1% FBS for 45 min. Cells were then washed three times in DMEM, with the second wash being incubated for 10 min to ensure the optimal reduction of unspecific compound binding. After an additional PBS wash, cells were then fixed in 4% PFA/PBS (15670799, Thermo Scientific) prior to incubation with 400 nM tetraszine-Cy5 (CLK-015-05, Jena Biosciences) in 1.5% FBS/PBS for 10 min at room temperature. Cells were permeabilized by the addition of 0.5% TritonX-100/PBS for 5 min before being stained overnight for Pericentrin (1:1500 ab28144 mouse anti-PCNT, Abcam) and KIFC1 (1:1500 12313S rabbit anti-KIFC1, Cell Signaling Technologies). Secondary antibodies Alexa Fluor 488 donkey antirabbit and Alexa Fluor 555 donkey antimouse (1:1500, A21206 and A31570, respectively, Life Technologies) were added together with 1 μg/mL DAPI (D9542, Sigma) in 1.5% FBS in PBS.
Plates were imaged at 40× using a Zeiss LSM980 confocal microscope with Airyscan 2. The subsequent analysis and quantification were performed using 3D image segmentation with the Arivis4D software. Mitotic cells were segmented by selecting for the highest density (integrated DAPI intensity/total volume), and the mitotic pole areas were segmented using the Pericentrin signal. The signal of the click probe (Cy5) and total KIFC1 (FITC) was measured on the mitotic pole area, and both were normalized to the control condition containing 40 probe alone. The ratio of probe per target (click probe pole integrated intensity signal/KIFC1 pole integrated intensity signal) was used to calculate the occupancy of the probe in the target protein and normalized to the control condition containing 40 probe alone (n > 100 for each replicate, two replicates per concentration point).

| Average Pixel intensity (5μM, Panel A: 3 quick washes at room temperature) | Average Pixel intensity (5μM, Panel B: 2 quick washes then 1 at 37 °C for 5 minutes) | Average Pixel intensity (5μM, Panel C: 2 quick washes then 1 at 37 °C for 10 minutes) | Average Pixel intensity (10μM, Panel A: 3 quick washes at room temperature) | Average Pixel intensity (10μM, Panel B: 2 quick washes then 1 at 37 °C for 5 minutes) | Average Pixel intensity (10μM, Panel C: 2 quick washes then 1 at 37 °C for 10 minutes) | displacement of TCO probe 40 from HSET in cells (in words) (competition with 3 μM 40, up to 10 μM 36) | SMILES |
| --- | --- | --- | --- | --- | --- | --- | --- |
| 5372 | 6057 | 4723 | 7167 | 7628 | 6337 |  | CCCOC(=O)c1sc(NC(=O)C[C@H](CCCN(C)C(=O)O[C@@H]2CC/C=C/CCC2)NC(=O)c2cccc(-c3noc(C)n3)c2)nc1C [Compound 38, Propyl 2-((S)-6-(((((S,E)-Cyclooct-4-en-1-yl)oxy)carbonyl)(methyl)amino)-3-(3-(5-methyl-1,2,4-oxadiazol-3-yl)benzamido)hexanamido)-4-methylthiazole-5-carboxylate] |
|  |  |  |  |  |  | dose-dependent manner | CCCOC(=O)c1sc(NC(=O)C[C@H](CCCN(C)C)NC(=O)c2cccc(-c3noc(C)n3)c2)nc1C [Compound 36, Propyl (S)-2-(6-(Dimethylamino)-3-(3-(5-methyl-1,2,4-oxadiazol-3-yl)benzamido)hexanamido)-4-methylthiazole-5-carboxylate] |
